Measurements as given in patent US20160339099A1, “SYNERGISTIC COMBINATION OF ANALGESIC DRUGS” (priority 2013, published 2016).

Tests used:
[1] = tested on: Nav1.7 loss of function pain-free; assay: Tactile sensitivity under naloxone; assay type: in vivo, human; details: baseline, saline and naloxone conditions
[2] = tested on: Nav1.7 loss of function pain-free; assay: Human radiant heat detection thresholds (warmth, pinprick) under naloxone; assay type: in vivo; details: naloxone 6 mg bolus and 0.1 mg/minute infusion
Method: (§1) A Nav1.7 loss of function pain-free […] ([…]) was tested under baseline, saline, and naloxone (6 mg) bolus and 0.1 mg/minute infusion treatment. The forearm was stimulated with radiant heat (CO2 lasers).
Warmth threshold reflects activation of unmyelinated C-fibres, while pinprick threshold is mediated by small-myelinated A-delta fibres (LaMotte et al 1978). Detection thresholds were assessed by slowly increasing the temperature of the stimulus (rate 1 deg/sec), after a neutral baseline of variable length (5-10 seconds). The participant was asked to press a button, to stop the stimulus as soon it was detected as warm or pinprick. At baseline, ML perceived only 1 of the 6 stimulus ramps. All the stimuli were detected in the subsequent saline and naloxone sessions.

Nav1.7 null mutant human [3] = assay: Human processing of tonic radiant heat under naloxone (ratings, EEG); assay type: in vivo
Method: as §1
We delivered tonic stimuli, at the constant temperature of 42, 45, and 48° C. for 20 sec. ML rated online fluctuations in perceived intensity on a visual analog scale. Identical stimuli were rated higher after administration of naloxone in comparison to both the baseline and saline conditions.
Furthermore, we measured the electroencephalogram (EEG) responses induced by tonic radiant heat stimulation: in other words, we looked at the effect of the nociceptive stimulation on brain rhythms.
(§2) Tonic radiant heat was administered over 25 seconds, while the participants rated online the intensity of the heat on a visual analogue scale. The results are depicted in FIG. 11B.

normal mice = assay: Hargreaves test after naloxone in normal mice; assay type: in vivo; details: 2 mg/kg naloxone intraperitoneal
Method: (§3) Thermal nociceptive thresholds were measured using the paw-withdrawal latency according to the method described by Hargreaves et al. (1988), with minor modifications (Minett et al. 2011). Briefly, mice were left to acclimatise within an IITC Hargreaves stand for at least 1 hour. Three withdrawal responses were measured per animal. The mice were then left to resettle for at least 30 minutes before the drug treatment.
(§4) Mice received intraperitoneal injections of either 2 mg/kg naloxone or the equivalent volume of vehicle.

Nav1.7 null mutant human [4] = assay: Human processing of phasic radiant heat (laser pulses) under naloxone; assay type: in vivo
Method: as §1
Laser pulses of the same energy (fluency 0.6 j/mm^2) were given to the forearm. The energy used typically evokes a sensation of sharp pinprick pain in healthy volunteers. […] However, naloxone enhanced the detection rate of laser pulses to 80%. ML felt 37.5% of the detected stimuli as pinprick, while the other sensations were described as a slow heat, or warmth. Ratings were low (mean 6.1, range 0.5-15) in a perceived intensity scale ranging from 0-100.
(§5) We evaluated the probability of detecting 9-ms radiant heat pulses in a Nav1.7 null mutant human patient and in three age-matched, healthy human controls. Radiant heat was used to selectively stimulate intra-epidermal free-nerve endings, without touch. The results are depicted in FIG. 11A.

Nav1.7 null mutant mice = assay: Hargreaves test after naloxone in Nav1.7 null mutant mice; assay type: in vivo; details: 2 mg/kg naloxone intraperitoneal; Nav1.7 Advill tissue-specific null mutant mice
Method: The analgesia found in Nav1.7 null mutant mice was measured with the Hargreaves apparatus, which is a measure of acute thermal pain (Minett et al. 2011, Minett et al. 2012).
as §3, §4

healthy human controls = assay: Radiant heat stimuli under naloxone in healthy controls; assay type: in vivo; details: healthy patients
Method: as §5, §2

Nav1.7 [5] = target: T1, Nav1.7 (Homo sapiens, UniProt Q15858); assay: Whole cell voltage clamp of Nav1.7 activity in transfected HEK293 cell line; assay type: cell-based; design: expressed in transfected cells; host or cells: HEK293; details: 0.25 μM, HEK293 cell line transfected with human Nav1.7
Method: Specifically, HEK293 (ATCC) cells are transfected with Nav1.7 or other sodium channel cDNA constructs in a vector co-expressing a fluorescent marker protein using lipofectamine 2000 or other transfection method and plated onto poly-d-lysine coated coverslips. All recordings are done 24-72 hours after transfection
Whole-cell voltage clamp recordings are performed using an Axopatch 200 B amplifier at room temperature using standard techniques. Extracellular solution comprised (mM) NaCl 145, KCl 4, CaCl2 1.8, MgCl2 1, HEPES 10, (pH 7.35 with NaOH); intracellular (mM) CsCl 150, EGTA 10, HEPES 10, (pH 7.35 with CsOH). […] Tau of inactivation was measured by fitting a standard exponential function to the decaying current and persistent current was determined by measuring the current 20 ms after the start of the voltage step and expressing it as a percentage of the transient current in the same step. To assess voltage dependence of activation current-voltage families were obtained and peak sodium currents measured at each voltage. Channel conductance was calculated using the formula GNa=I/(V−Vrev) where GNa is sodium conductance, I is peak current, V is the voltage step and Vrev is the measured reversal potential which was determined for each cell by fitting a straight line through the linear portion of the current-voltage relationship. […]

[6] = tested on: murine acute thermal pain model; assay: Hargreaves test, murine acute thermal pain model, intraplantar drug treatment; details: 1 μg of each drug, 20 μl intraplantar injection, compared with control mice
Method: (§6) Mice received 20 μl intraplantar injections of either; • 1 μg Phlotoxin-1, • 1 μg Buprenorphine, • combined 1 μg Phlotoxin-1 and 1 μg Buprenorphine • or vehicle.

[7] = tested on: inflammatory hyperalgesia in a murine thermal pain model; assay: Complete Freund's Adjuvant thermal hyperalgesia, Hargreaves test (Example 2); assay type: in vivo, mice; details: intraplantar 1 microgram each; three days post CFA
Method: Baseline thermal thresholds were recorded for each animal before 20 μl Complete Freund's Adjuvant (Sigma) was injected subcutaneously into the plantar aspect of a hind paw using a Hamilton syringe and 30 G needle. Three days post Complete Freund's Adjuvant injections thermal threshold were measured before to drug treatment.
as §6

Nav1.7 [8] = target: T1, Nav1.7; details: Escoubas et al. 2006, Bosmans et al. 2005; cited from earlier work
Nav1.7 [9] = target: T1, Nav1.7; details: Yang et al. 2013; read-out: IC50 for inhibition of Nav1.7; cited from earlier work
[10] = scale ranging from 0-100, naloxone

T1 sequence (Q15858 whole entry): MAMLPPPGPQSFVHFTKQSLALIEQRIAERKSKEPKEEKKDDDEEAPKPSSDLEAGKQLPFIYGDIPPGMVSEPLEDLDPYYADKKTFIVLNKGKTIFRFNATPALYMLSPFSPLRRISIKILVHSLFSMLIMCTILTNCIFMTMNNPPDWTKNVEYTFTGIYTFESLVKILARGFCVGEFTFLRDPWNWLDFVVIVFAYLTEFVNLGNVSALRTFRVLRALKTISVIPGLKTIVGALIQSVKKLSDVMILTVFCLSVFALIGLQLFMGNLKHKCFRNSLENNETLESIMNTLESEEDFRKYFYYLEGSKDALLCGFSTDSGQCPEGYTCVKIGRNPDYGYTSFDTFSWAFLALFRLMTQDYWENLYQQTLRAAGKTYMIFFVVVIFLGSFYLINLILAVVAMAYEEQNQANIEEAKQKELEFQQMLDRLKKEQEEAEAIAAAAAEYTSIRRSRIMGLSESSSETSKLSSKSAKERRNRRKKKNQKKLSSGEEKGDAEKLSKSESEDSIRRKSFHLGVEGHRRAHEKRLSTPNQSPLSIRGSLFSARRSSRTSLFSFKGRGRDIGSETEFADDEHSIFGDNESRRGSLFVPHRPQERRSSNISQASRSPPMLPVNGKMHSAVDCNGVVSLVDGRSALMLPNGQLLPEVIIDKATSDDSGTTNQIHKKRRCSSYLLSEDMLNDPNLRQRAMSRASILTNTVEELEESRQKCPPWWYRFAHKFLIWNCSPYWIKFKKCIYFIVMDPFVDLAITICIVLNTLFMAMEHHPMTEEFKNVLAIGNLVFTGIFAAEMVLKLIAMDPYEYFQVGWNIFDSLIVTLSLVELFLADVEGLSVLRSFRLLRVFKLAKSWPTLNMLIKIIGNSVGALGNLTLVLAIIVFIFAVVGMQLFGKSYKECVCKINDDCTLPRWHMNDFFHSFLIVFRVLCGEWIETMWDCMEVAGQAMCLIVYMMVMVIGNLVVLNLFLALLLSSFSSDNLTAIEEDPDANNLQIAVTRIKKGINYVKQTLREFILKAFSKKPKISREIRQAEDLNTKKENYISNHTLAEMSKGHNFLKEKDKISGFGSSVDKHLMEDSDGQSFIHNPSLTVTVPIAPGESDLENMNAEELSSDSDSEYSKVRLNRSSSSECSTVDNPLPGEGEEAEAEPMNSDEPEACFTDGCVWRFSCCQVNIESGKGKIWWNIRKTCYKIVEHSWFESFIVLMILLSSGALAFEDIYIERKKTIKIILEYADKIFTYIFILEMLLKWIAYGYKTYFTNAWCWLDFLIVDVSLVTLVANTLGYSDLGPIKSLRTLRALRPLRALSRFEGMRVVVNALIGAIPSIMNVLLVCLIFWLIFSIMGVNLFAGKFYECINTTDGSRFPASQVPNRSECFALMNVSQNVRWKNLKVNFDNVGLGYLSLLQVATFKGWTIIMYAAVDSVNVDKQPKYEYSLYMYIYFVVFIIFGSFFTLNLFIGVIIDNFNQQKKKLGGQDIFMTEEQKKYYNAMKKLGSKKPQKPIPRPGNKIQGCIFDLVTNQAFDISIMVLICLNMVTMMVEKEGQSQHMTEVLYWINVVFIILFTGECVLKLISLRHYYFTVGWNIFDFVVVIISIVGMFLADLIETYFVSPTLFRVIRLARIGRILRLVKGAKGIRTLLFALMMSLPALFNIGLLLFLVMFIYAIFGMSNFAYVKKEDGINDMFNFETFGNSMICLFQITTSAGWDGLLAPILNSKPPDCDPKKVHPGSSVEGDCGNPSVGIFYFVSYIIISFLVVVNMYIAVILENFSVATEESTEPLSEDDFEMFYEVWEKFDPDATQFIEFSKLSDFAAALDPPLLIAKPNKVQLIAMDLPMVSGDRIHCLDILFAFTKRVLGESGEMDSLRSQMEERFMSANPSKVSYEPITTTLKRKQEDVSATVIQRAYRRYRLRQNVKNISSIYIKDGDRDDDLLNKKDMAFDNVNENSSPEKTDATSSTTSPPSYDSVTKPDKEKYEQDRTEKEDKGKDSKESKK

Q: Which results are given for `C=CCN1CC[C@]23c4c5ccc(O)c4O[C@H]2C(=O)CC[C@@]3(O)[C@H]1C5` [naloxone]?
A: tactile sensitivity [1]: remained unchanged; trials in which pinprick stimuli were reported "surprisingly uncomfortable" [2]: 66%; reduction of pinprick detection thresholds relative to saline ([2]; forearm radiant heat): 1.7 °C; reduction of warmth detection thresholds relative to saline ([2]; forearm radiant heat): 7 °C; perceived intensity rating of tonic stimuli (visual analog scale) versus baseline and saline (Nav1.7 null mutant human [3]; 42, 45 and 48° C. for 20 sec, naloxone): rated higher; EEG alpha and beta power during tonic radiant heat (Nav1.7 null mutant human [3]; naloxone): reduced; EEG low and high gamma induced oscillations relative to baseline and saline (Nav1.7 null mutant human [3]; naloxone): enhancement; intensity ratings of tonic radiant heat on visual analogue scale (Example 14) (Nav1.7 null mutant human [3]; tonic radiant heat over 25 seconds, Nav1.7 null human): strongly increased; effect on pain thresholds, Hargreaves test (normal mice): does not alter pain thresholds; probability of detecting 9-ms radiant heat pulses (Nav1.7 null mutant human [4]; bolus of 6 mg naloxone followed by infusion at 0.1 mg/minute, Nav1.7 null mutant): 80%; detection rate of laser pulses (Nav1.7 null mutant human [4]; fluency 0.6 j/mm2, forearm, naloxone, none perceived at baseline and saline): 80%; detected stimuli felt as pinprick (Nav1.7 null mutant human [4]; naloxone): 37.5%; perceived intensity rating of laser pulses, mean (Nav1.7 null mutant human [4]; [10]): 6.1; perceived intensity rating of laser pulses, range (Nav1.7 null mutant human [4]; [10]): 0.5-15; effect on the analgesia of Nav1.7 null mutant mice, Hargreaves test (Nav1.7 null mutant mice): partially reverses; sensitisation to noxious stimuli (phasic and tonic radiant heat) (healthy human controls): no effect

Q: With Phlotoxin-1 as the compound, how does the “inhibition of functional Nav1.7 voltage-gated channel activity” value (Nav1.7 [5]) read?
A: completely inhibits

Q: And the “analgesia in the Hargreaves test (paw-withdrawal latency)” value [6]?
A: no analgesia

Q: What about the “effect on inflammatory (CFA) thermal hyperalgesia, Hargreaves test” value [7] of the same compound?
A: much lesser effects

Q: What about the “selective affinity for Nav1.7 compared to other expressed sodium channels” value (Nav1.7 [8]) of the same compound?
A: sub-micromolar

Q: For μ-SLPTX-Ssm6a, which IC50 (Nav1.7 [9]) is on record?
A: ~25 nM
